Assay results as given in publication PMC5905603, “Purification and characterisation of a quorum quenching AHL-lactonase from the endophytic bacterium Enterobacter sp. CS66” (FEMS Microbiology Letters, 2018).

Test system: T1, AiiE
T1 construct: full-length ORF (ca. 750 bp) in pET-19m, E. coli Rosetta DE3; His6 tag cut off by TEV; 240B1
Test: phenol red proton-release assay (A557), Lineweaver-Burk
Assay type: biochemical, Enterobacter sp. CS66
Conditions: 1 mM HEPES, 200 mM NaCl, 50 uM phenol red, pH 7.5
Description: phenol red proton-release assay (A557), Lineweaver-Burk on AiiE

Row | Structure (SMILES) | Km
1 | CCCCCCCCCCCC(=O)N[C@H]1CCOC1=O [C12-HSL] | 15.2 mM
2 | CCCC(=O)N[C@H]1CCOC1=O [C4-HSL] | 6.01 mM
3 | CCCCCC(=O)N[C@H]1CCOC1=O [C6-HSL] | 7.88 mM
4 | CCCCCCCCCC(=O)N[C@H]1CCOC1=O [C10-HSL] | 14.9 mM
5 | CCCCCCCC(=O)N[C@H]1CCOC1=O [C8-HSL] | 10.3 mM
